We go through seven molecules from PMC7442609 (ACS chemical biology, 2020).

Like-named read-outs stand apart in the source and are kept apart here. Peptide text beside a SMILES is read from it. * marks the point of attachment. Cbz = O=C(OCc1ccccc1)*

In one experiment the test system is RAW-Difluo mLC3 cells. In words: RAW-Difluo mLC3 autophagy reporter assay. The following applies: 16 hours. It is filed as cell-based, murine. In general terms: A reporter such as luciferase makes a cellular process visible.
The test system of the next experiment is FoxM1. It is filed as cell-based, murine. Particulars: 5 μM, 16 hours, western blot.
The subject of another experiment is Parkin. It is filed as cell-based, murine. Particulars: 5 μM, 16 hr, western blot. (In general: Immunoblotting shows a protein as a band on a membrane.)
The next experiment relates to PINK1. Format: cell-based, murine. The following applies: 5 μM, 16 hr, western blot.
For another experiment, the target named is T1, proteasomes (Mus musculus, UniProt O55234+P70195+Q60692).
T1 sequence (O55234 60-264): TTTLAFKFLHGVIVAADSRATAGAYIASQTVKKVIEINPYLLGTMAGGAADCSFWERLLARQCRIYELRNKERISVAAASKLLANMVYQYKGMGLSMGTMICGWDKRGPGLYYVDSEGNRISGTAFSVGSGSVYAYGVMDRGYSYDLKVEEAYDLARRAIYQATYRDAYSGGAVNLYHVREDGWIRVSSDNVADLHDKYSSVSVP
T1 sequence (Q60692 1-238): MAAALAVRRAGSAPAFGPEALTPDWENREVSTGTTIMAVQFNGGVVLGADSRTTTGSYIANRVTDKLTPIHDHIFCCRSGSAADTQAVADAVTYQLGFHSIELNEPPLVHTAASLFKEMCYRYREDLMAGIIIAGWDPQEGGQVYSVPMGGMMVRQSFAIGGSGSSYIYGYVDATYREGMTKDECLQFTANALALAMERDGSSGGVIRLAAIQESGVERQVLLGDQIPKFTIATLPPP
T1 sequence (P70195 44-277): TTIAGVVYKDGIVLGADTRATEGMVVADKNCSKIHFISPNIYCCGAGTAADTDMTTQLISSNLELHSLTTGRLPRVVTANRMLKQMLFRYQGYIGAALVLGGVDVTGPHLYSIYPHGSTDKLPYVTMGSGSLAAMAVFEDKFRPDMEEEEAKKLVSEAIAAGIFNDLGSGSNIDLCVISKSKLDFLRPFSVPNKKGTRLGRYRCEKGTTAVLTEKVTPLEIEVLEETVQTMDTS
Kind of experiment: Ub-R-GFP reporter assay of proteasomal activity in cells. It is filed as cell-based, murine.

Another experiment has as its target 20S proteasome (Homo sapiens, UniProt P28072+P28074+Q99436). In words: Proteasome-Glo assay on purified 20S proteasome. Format: biochemical. The following applies: 1 hr; for IC50 caspase-like activity / IC50 chymotrypsin-like activity / IC50 trypsin-like activity: purified 20S proteasome.
A further experiment relates to Mtb H37Rv. In words: Resazurin microtiter assay. Format: cell-based, Mycobacterium tuberculosis.
Experiment [1] relates to luxBCADE-expressing H37Rv Mtb in THP-1 cells. Format: cell-based, Mycobacterium tuberculosis. The following applies: for effect of WRT on anti-Mtb activity in macrophages: THP-1 cells, + WRT (15 μM), 7 days.
In experiment [2] the test system is RFP-LC3-THP-1 cells infected with Mtb. It is filed as cell-based, human. The following applies: 16 hr at 10 μM, TSR 2.5 μM.
Another experiment has as its system THP-1 cells. It is filed as cell-based, human. The following applies: uninfected THP-1 cells.
A further experiment concerns EIF-2α. It is filed as cell-based, murine. The following applies: 5 μM, 16 hours, western blot.

As to `C=C(NC(=O)C(=C)NC(=O)c1ccc2c(n1)-c1coc(n1)C(=C)NC(=O)C(=C)NC(=O)c1nc(oc1C)C(=C)NC(=O)C(C(C)(C)O)NC(=O)C(=C)NC(=O)c1nc(oc1C)/C(=C/C)NC(=O)C(C(C)O)NC(=O)c1csc-2n1)C(N)=O` (stereo not drawn) [BER, berninamycin], the “induction of autophagy (in words)” value in the experiment with RAW-Difluo mLC3 cells was “also induced autophagy”.
As for `C=C(NC(=O)C(=C)NC(=O)c1csc(-c2ccc3c(n2)-c2csc(n2)-c2csc(n2)C2C(C)CC(O)N2C(=O)C(Cc2ccc(O)cc2)N=C(O)C2CSC(=N2)C(Cc2ccccc2)N=C(O)c2csc(n2)C(CC(N)=O)N=C(O)c2nc-3oc2C)n1)C(=O)O` (stereo not drawn) [GE, GE37468], the “induction of autophagy (in words)” value in the experiment with RAW-Difluo mLC3 cells is listed as “induced autophagy at concentrations comparable to TSR”.
Take `CC(C)C[C@@H](C=O)NC(=O)[C@H](CC(C)C)NC(=O)[C@H](CC(C)C)NC(=O)OCc1ccccc1` [MG-132] (Cbz-Leu-Leu-Leu-aldehyde): in the experiment on FoxM1, the FoxM1 protein levels result is “significant decrease in FoxM1 protein levels”. Moreover, the Parkin expression level result in the experiment with Parkin is recorded as “little to no increase over basal levels”. Further, the PINK1 expression level result in the experiment on PINK1 was “little to no increase over basal levels”.
In turn, `C=C(NC(=O)c1csc(-c2nc3c(cc2O)-c2nc(cs2)C(=O)NC(C(C)O)C(=O)N/C(=C\C)c2nc(cs2)C(=O)NC2CC(O)C(=O)OCc4cccc5[nH]c(c(C)c45)C(=O)SCC(NC(=O)c4csc2n4)c2nc-3cs2)n1)C(N)=O` (stereo not drawn) [NOS, nosiheptide] registered an EC50 on proteasomes of 380 nM. In addition, the “induction of autophagy (in words)” value with RAW-Difluo mLC3 cells was “induced autophagy at concentrations comparable to TSR”. In the experiment on FoxM1, the FoxM1 protein levels entry is recorded as “no effect on FoxM1 levels”. Further, at 20S proteasome, the “direct inhibition of reconstituted 20S proteasome” value is given as “directly inhibited the proteasome”, the IC50 caspase-like activity result is recorded as “low micromolar”, the IC50 chymotrypsin-like activity entry is on record as “low micromolar” and the IC50 trypsin-like activity result is “low micromolar”. For the same molecule, the “activity against Mtb in vitro (REMA, in words)” value (“activity against Mtb in vitro” for short) in the experiment on Mtb H37Rv (Mtb H37Rv in culture, 4 days) was “active against Mtb in vitro at IC50s comparable to kanamycin”. Also, in experiment [1], the “inhibition of intracellular Mtb growth” value is listed as “potent inhibitory effects on intracellular Mtb growth” and the “effect of WRT on anti-Mtb activity in macrophages” value (“effect of WRT on anti-Mtb activity” below) is recorded as “no significant effect on their anti-Mtb activity in macrophages”. The “autophagosomes (RFP-LC3 puncta) per Mtb infected cell” value in experiment [2] is “significantly increased the number of RFP-LC3 puncta per cell”.
At proteasomes, `C=C(NC(=O)C(=C)NC(=O)c1csc(C2=N[C@@H]3c4csc(n4)[C@H]4NC(=O)c5csc(n5)[C@H]([C@](C)(O)[C@@H](C)O)NC(=O)[C@H]5CSC(=N5)/C(=C/C)NC(=O)[C@H]([C@@H](C)O)NC(=O)c5csc(n5)[C@]3(CC2)NC(=O)[C@H](C)NC(=O)C(=C)NC(=O)[C@H](C)NC(=O)[C@H]([C@@H](C)CC)N[C@@H]2C=Cc3c([C@H](C)O)cc(nc3[C@H]2O)C(=O)O[C@@H]4C)n1)C(N)=O` [TSR, thiostrepton] gave an EC50 of 1450 nM. Also, the “induction of autophagy (in words)” value in the experiment on RAW-Difluo mLC3 cells is “potently induced autophagy”. For the same molecule, in the experiment on FoxM1, the FoxM1 protein levels entry is reported as “significant decrease in FoxM1 protein levels”. For the same molecule, on 20S proteasome, the “direct inhibition of reconstituted 20S proteasome” value is recorded as “directly inhibited the proteasome”, the IC50 caspase-like activity entry is recorded as “substantially less active”, the IC50 chymotrypsin-like activity result is “sub-micromolar” and the IC50 trypsin-like activity entry is “sub-micromolar”. For the same molecule, the “activity against Mtb in vitro” value with Mtb H37Rv is “active against Mtb in vitro at IC50s comparable to kanamycin”. Further, in experiment [1], the “inhibition of intracellular Mtb growth” value is reported as “potent inhibitory effects on intracellular Mtb growth” and the “effect of WRT on anti-Mtb activity” value is reported as “no significant effect on their anti-Mtb activity in macrophages”. Moreover, the “autophagosomes (RFP-LC3 puncta) per Mtb infected cell” value in experiment [2] is listed as “significantly increased the number of RFP-LC3 puncta per cell”.
Regarding `COC[C@H]1OC(=O)c2coc3c2[C@@]1(C)C1=C(C3=O)[C@@H]2CCC(=O)[C@@]2(C)C[C@H]1OC(C)=O` [WRT, wortmannin, reference compound], the “autophagosomes (RFP-LC3 puncta) per Mtb infected cell” value in [2] is recorded as under 5. The “effect on thiopeptide-induced autophagy” value with THP-1 cells is “abrogates thiopeptide-induced autophagy”.
For the molecule thiocillin III [TCIII], the “induction of autophagy (in words)” value in the experiment on RAW-Difluo mLC3 cells is “also induced autophagy”. In the experiment with RAW-Difluo mLC3 cells (read-out: EC50 induction of autophagy (RFP-LC3 puncta per cell)), the EC50 amounted to 90 nM. For the same molecule, in the experiment on EIF-2α, the EIF-2α phosphorylation entry is “led to EIF-2α phosphorylation”. In the experiment on Mtb H37Rv (Mtb H37Rv in culture, 4 days), the “activity against Mtb in vitro” value is “active against Mtb in vitro at IC50s comparable to kanamycin”. Also, in experiment [1], the “inhibition of intracellular Mtb growth” value is listed as “potent inhibitory effects on intracellular Mtb growth” and the “effect of WRT on anti-Mtb activity” value is given as “no significant effect on their anti-Mtb activity in macrophages”. Further, the “autophagosomes (RFP-LC3 puncta) per Mtb infected cell” value in [2] is recorded as “significantly increased the number of RFP-LC3 puncta per cell”.

As usually defined, the EC50 is the midpoint of the concentration-response curve.
